Seven molecules from patent US20250034216A1, “STEREOSELECTIVE COVALENT LIGANDS FOR ONCOGENIC AND IMMUNOLOGICAL PROTEINS” (The Scripps Research Institute, priority 2021, published 2025) can be followed below.

Assay [1] deals with PSME1 and PSME2 (PA28 complex) (Homo sapiens, UniProt Q06323). Description: SEC-MS elution profile. Conditions: 22Rv1 cells, 20 μM, 3 h. Set-up: endogenous in cells; host or cells: 22Rv1. It is filed as cell-based. The procedure: Sample preparation: Cells (adherent: 15 cm dishes, suspension: 2 million cells/mL) were treated with electrophilic probes in situ for indicated times and concentrations (elaborated fragments: 20 μM, 3 h), washed with ice-cold PBS, and flash frozen in liquid nitrogen. Cell pellets were lysed by sonication (8 pulses, 40% power) in 600 μL ice-cold PBS supplemented with cOmplete protease inhibitors (1 tablet/10 mL of PBS), ultracentrifuged for 20 min at 100,000 g, then normalized to a standardized concentration (typically 1.5 to 2.5 mg/mL). Clarified lysate was injected into a Superdex 200 Increase 10/300 GL column attached to an AKTA pure FPLC system. Proteins were fractionated using an isocratic gradient (PBS) running at 0.5 mL/min into 5 fractions 2 mL wide, beginning at 8 mL and ending at 18 mL. Eluate was collected into 15 mL tubes containing 12 mL of acetone at 4C. After completion of one set of 5 fractions, the above protocol was repeated a second time for the remaining 5 fractions. Proteins were precipitated overnight at −20 C, then spun at 4500 g for 20 minutes, yielding a white protein pellet. Acetone/PBS mixture was decanted off the pellets, which were dried at room temperature and then resuspended in 125 μL of 8 M urea, 10 mM DTT in 100 mM EPPS for 15 minutes at 65 degrees, followed by probe sonication to complete resuspension. 6.25 μL of 500 mM iodoacetamide was added to samples for alkylation (30 minutes, 37 C), followed by dilution with 370 μL of 100 mM EPPS, and addition of 2 μg trypsin per fraction, and digestion overnight at 37 C. 70 μL of tryptic digest was aliquoted into a clean microcentrifuge tube, followed by 30 μL of dry acetonitrile and 4.5 μL (5 mg/256 μL) of TMT tag in dry acetonitrile. Samples were labeled at room temperature for 75 minutes, then quenched with 6 μL of 5% hydroxylamine for 15 minutes and acidified with 5 μL of formic acid. The set of 10 samples were then combined into a single tube and evaporated by speed vac. Samples were then desalted and fractionated before analysis by mass spectrometry.
PSME1 and PSME2 (PA28 complex), sequence (Q06323 whole entry, the tested form may be a part, one chain of several): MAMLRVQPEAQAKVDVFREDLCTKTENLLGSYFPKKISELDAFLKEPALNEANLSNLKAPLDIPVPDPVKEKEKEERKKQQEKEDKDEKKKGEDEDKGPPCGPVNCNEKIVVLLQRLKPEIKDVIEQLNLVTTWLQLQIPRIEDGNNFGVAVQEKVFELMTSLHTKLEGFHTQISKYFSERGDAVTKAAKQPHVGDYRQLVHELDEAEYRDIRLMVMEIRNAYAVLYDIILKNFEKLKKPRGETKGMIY
Data processing: Fractional distributions for each peptide-spectra match with a total TMT reporter ion intensity were calculated by dividing the reporter ion intensity for each TMT channel by the summed intensity across the 5 TMT channels corresponding to a single treatment condition (Equation 1). Protein-level SEC elution profiles were then generated by averaging together all unique peptides with a summed reporter ion intensity >5,000. Two unique peptide sequences were required per-protein. Bar graph elution profiles are represented as the mean±standard error of the mean across all replicates. Euclidean distances (SE shift scores, Equation 2) were calculated using the average elution profile for each protein across replicates, combined by treatment condition and cell line. Figures reporting mean elution times used Equation 3 for calculation.
Filtering of SEC-MS data: Replicates were combined based on cell line and treatment condition (probe, concentration, duration) by averaging SEC elution profiles for each protein across all experiments. A coefficient of variation (CV) filter was applied by taking the average the per-fraction CV across all 5 fractions. Proteins with a CV≥0.7 were removed from analysis.

Assay [2] has as its system mRNA splicing in 22Rv1 cells. Put plainly: RNA sequencing, alternative splicing (rMATS). It is filed as cell-based, human. Conditions: 8 hr, RNA-seq. The procedure:
RNA sequencing libraries were prepared using the NEBNext Ultra II RNA Library Prep Kit for Illumina following manufacturer's instructions (NEB, Ipswich, MA, USA). mRNAs were first enriched with Oligo(dT) beads. Enriched mRNAs were fragmented for 15 minutes at 94° C. First strand and second strand cDNAs were subsequently synthesized. cDNA fragments were end repaired and adenylated at 3′ends, and universal adapters were ligated to cDNA fragments, followed by index addition and library enrichment by limited-cycle PCR. The sequencing libraries were validated on the Agilent TapeStation (Agilent Technologies, Palo Alto, CA, USA), and quantified by using Qubit 2.0 Fluorometer (Invitrogen, Carlsbad, CA) as well as by quantitative PCR (KAPA Biosystems, Wilmington, MA, USA). FASTQ files were first trimmed using Trim_galore (v0.6.4) to remove sequencing adapters and low quality (Q<15) reads. Trimmed sequencing reads were aligned to the human Hg19 reference genome (GENCODE, GRCh37.p13) using STAR (v2.7.5). SAM files were subsequently converted to BAM files, sorted, and indexed using samtools (v1.9). […] Read counting across genomic features was performed using featureCounts (part of the subread package; v1.5.0) using the following parameters: -p -T 20 -O -F GTF -t exon. […]
For quantification of alternative RNA splicing, BAM files generated by STAR/Samtools were analyzed using rMATS (v4.1.1) using the GENCODE (v19) GTF annotation for Hg19 (GRCh37.p13) and the following parameters: -t paired --libType fr-unstranded—readLength 150—novelSS. To utilize reads shorted than 150b.p. resulting from adapter and/or QC trimming by trim_galore, rMATS was programmed to accept soft-clipped reads of variable length. Enumeration of isoform counts was performed using only reads that span the splice junction directly. To identify high confidence AS events, events were considered significant if (i) the inclusion level difference was greater than 20% compared to DMSO, (ii) the False Discovery Rate (FDR) was smaller than 0.05, and (iii) there were a minimum of 20 reads mapping to the splice junction. […]

For the next assay, the system named is 22Rv1 cells. Put plainly: Proliferation assay (CellTiter Glo). It is filed as cell-based, human. Conditions: 72 h. The procedure:
Cells were seeded at 5000 cells per well (50 μL medium) in 96-well flat bottom white wall plates. After 24 h, 50 μL of medium containing DMSO or compound dilutions (2× final concentration from 1000× stocks) were added to the wells. At the time of compound addition, a reference plate to determine the cell population density at time 0 (TO) was assayed using CellTiter Glo reagent (50 μL added to each well). After 72 h in culture, the remaining plates were assayed using CellTiter Glo. After 30 min of shaking at room temperature, luminescence was analyzed using a CLARIOstar (BMG Labtech) plate reader. Raw values were normalized using GraphPad PRISM software version 9.0.0. Lines of best fit were generated using a four-parameter variable slope least squares regression.

On to `C=CC(=O)N1C[C@@H](c2ccc(Br)cc2)[C@H]1C(=O)Nc1cccc2cccnc12` [MY-1A, (2S,3R)-1-acryloyl-3-(4-bromophenyl)-N-(quinolin-8-yl)azetidine-2-carboxamide], for which the “SEC migration shift of PSME1 and PSME2” value in assay [1] was “None of the other azetidine acrylamide stereoisomers”. The same measure, in the same setting: next, `C=CC(=O)N1C[C@H](c2ccc(Br)cc2)[C@@H]1C(=O)Nc1cccc2cccnc12` [MY-1B, (2R,3S)-1-acryloyl-3-(4-bromophenyl)-N-(quinolin-8-yl)azetidine-2-carboxamide]: “decreased size shift”; `C=CC(=O)N1C[C@H](c2ccc(Br)cc2)[C@H]1C(=O)Nc1cccc2cccnc12` [MY-3A, (2S,3S)-1-acryloyl-3-(4-bromophenyl)-N-(quinolin-8-yl)azetidine-2-carboxamide]: “None of the other azetidine acrylamide stereoisomers”; `C=CC(=O)N1C[C@H](c2ccc(Br)cc2)[C@H]1C(=O)Nc1cccc2cccnc12` [MY-3B, (2S,3S)-1-acryloyl-3-(4-bromophenyl)-N-(quinolin-8-yl)azetidine-2-carboxamide]: “None of the other azetidine acrylamide stereoisomers”. As for `CC#CC(=O)N1C[C@H](c2ccc(Br)cc2)[C@@H]1C(=O)Nc1cccc2cccnc12` [MY-45B, (2R,3S)-3-(4-bromophenyl)-1-(but-2-ynoyl)-N-(quinolin-8-yl)azetidine-2-carboxamide], in assay [1], the “SEC migration shift of PSME1 and PSME2” value is listed as “caused the expected SEC migration shifts”.

`C=CC(=O)N1[C@H](c2ccc3c(c2)OCO3)c2[nH]c3ccccc3c2C[C@H]1C(=O)N1CCOCC1` [WX-02-23, 1-((1R,3S)-1-(benzo[d][1,3]dioxol-S-yl)-3-(morpholine-4-carbonyl)-1,3,4,9-tetrahydro-2H-pyrido [3,4-b]indol-2-yl)prop-2-en-1-one]: the mRNA splicing changes entry in assay [2] is “induction of both intron retention and exon skipping events”. Moreover, the “fold greater antiproliferative activity than MY-7A” value in the assay with 22Rv1 cells is around 4 fold. The IC50 in the assay on 22Rv1 cells (read-out: antiproliferative activity IC50) is 170 nM. For `C=CC(=O)N1[C@@H](c2ccc3c(c2)OCO3)c2[nH]c3ccccc3c2C[C@@H]1C(=O)N1CCOCC1` [WX-02-43, 1-((1S,3R)-1-(benzo[d][1,3]dioxol-5-yl)-3-(morpholine-4-carbonyl)-1,3,4,9-tetrahydro-2H-pyrido [3,4-b]indol-2-yl)prop-2-en-1-one], in assay [2], the mRNA splicing changes entry is on record as “No such splicing effects were observed”. In addition, the “anti-proliferative effect” value with 22Rv1 cells is “inactive enantiomer”.
